“And” between values parts separate entries of the source, which are not always exact repeats. Equal entries are not always repeated. ± gives the uncertainty stated by the source.
Test: xn = mol fraction of the nth substance listed

C=CC(C)O (centres undefined) + O
viscosity [mPa·s], 101.32 kPa
Details	x1 = 0.1003	x1 = 0.2	x1 = 0.3004	x1 = 0.4	x1 = 0.5013	x1 = 0.601	x1 = 0.7012	x1 = 0.8046	x1 = 0.9031
308.15 K	1.553 ± 0.024	1.858 ± 0.029	1.854 ± 0.029	1.765 ± 0.028	1.682 ± 0.027	1.566 ± 0.026	1.457 ± 0.025	1.387 ± 0.024	1.331 ± 0.024
313.15 K	1.347 ± 0.021	1.617 ± 0.025	1.612 ± 0.025	1.535 ± 0.025	1.461 ± 0.024	1.369 ± 0.023	1.28 ± 0.022	1.231 ± 0.022	1.171 ± 0.021
318.15 K	1.189 ± 0.019	1.405 ± 0.022	1.404 ± 0.023	1.345 ± 0.022	1.281 ± 0.021	1.209 ± 0.021	1.13 ± 0.02	1.08 ± 0.019	1.044 ± 0.019
323.15 K	1.049 ± 0.017	1.243 ± 0.02	1.24 ± 0.02	1.187 ± 0.02	1.138 ± 0.019	1.078 ± 0.019	1.007 ± 0.018	0.9691 ± 0.018	0.9323 ± 0.017

CCCC(=O)[O-].[Na+] + O
298.15 K, 101.33 kPa
Details	viscosity [mPa·s]
x1 = 0.008927	1.136 ± 0.012
x1 = 0.0177	1.436 ± 0.015
x1 = 0.02631	1.793 ± 0.018
x1 = 0.03478	2.235 ± 0.022

COCCOCCOC + O
Details	viscosity [mPa·s]
298.15 K, 101 kPa, x1 = 0.021	1.36 ± 0.41
298.15 K, 101 kPa, x1 = 0.04611	2.03 ± 0.61
298.15 K, 101 kPa, x1 = 0.08173	2.84 ± 0.85
298.15 K, 101 kPa, x1 = 0.135	3.11 ± 0.94
298.15 K, 101.32 kPa, x1 = 0.0104	1.16 ± 0.007
298.15 K, 101.32 kPa, x1 = 0.0199	1.362 ± 0.008
298.15 K, 101.32 kPa, x1 = 0.0677	2.567 ± 0.018
298.15 K, 101.32 kPa, x1 = 0.1	2.959 ± 0.021
298.15 K, 101.32 kPa, x1 = 0.1492	3.175 ± 0.023
298.15 K, 101.32 kPa, x1 = 0.1978	2.936 ± 0.021
298.15 K, 101.32 kPa, x1 = 0.2959	2.342 ± 0.016
298.15 K, 101.32 kPa, x1 = 0.4011	1.881 ± 0.012
298.15 K, 101.32 kPa, x1 = 0.4988	1.552 ± 0.01
298.15 K, 101.32 kPa, x1 = 0.577	1.398 ± 0.009
298.15 K, 101.32 kPa, x1 = 0.8569	1.084 ± 0.006
298.15 K, 101.33 kPa, x1 = 0.0091	1.139 ± 0.009
298.15 K, 101.33 kPa, x1 = 0.0188	1.403 ± 0.011
298.15 K, 101.33 kPa, x1 = 0.0295	1.691 ± 0.013
298.15 K, 101.33 kPa, x1 = 0.051	2.246 ± 0.017
298.15 K, 101.33 kPa, x1 = 0.0854	2.993 ± 0.022
298.15 K, 101.33 kPa, x1 = 0.1194	3.328 ± 0.024
298.15 K, 101.33 kPa, x1 = 0.1604	3.232 ± 0.023
298.15 K, 101.33 kPa, x1 = 0.2099	2.993 ± 0.021
298.15 K, 101.33 kPa, x1 = 0.2597	2.661 ± 0.019
298.15 K, 101.33 kPa, x1 = 0.3028	2.389 ± 0.017
298.15 K, 101.33 kPa, x1 = 0.3461	2.153 ± 0.015
298.15 K, 101.33 kPa, x1 = 0.3843	1.982 ± 0.014
298.15 K, 101.33 kPa, x1 = 0.4327	1.791 ± 0.013
298.15 K, 101.33 kPa, x1 = 0.4651	1.691 ± 0.012
298.15 K, 101.33 kPa, x1 = 0.5196	1.536 ± 0.011
298.15 K, 101.33 kPa, x1 = 0.608	1.356 ± 0.009
298.15 K, 101.33 kPa, x1 = 0.659	1.272 ± 0.009
298.15 K, 101.33 kPa, x1 = 0.7695	1.145 ± 0.008
298.15 K, 101.33 kPa, x1 = 0.8171	1.103 ± 0.008
298.15 K, 101.33 kPa, x1 = 0.8712	1.066 ± 0.007
298.15 K, 101.33 kPa, x1 = 0.9453	1.024 ± 0.007
303.15 K, 101 kPa, x1 = 0.021	1.19 ± 0.36
303.15 K, 101 kPa, x1 = 0.04611	1.71 ± 0.52
303.15 K, 101 kPa, x1 = 0.08173	2.35 ± 0.71
303.15 K, 101 kPa, x1 = 0.135	2.62 ± 0.79
313.15 K, 101 kPa, x1 = 0.021	0.94 ± 0.28
313.15 K, 101 kPa, x1 = 0.04611	1.27 ± 0.38
313.15 K, 101 kPa, x1 = 0.08173	1.75 ± 0.53
313.15 K, 101 kPa, x1 = 0.135	1.93 ± 0.58
323.15 K, 101 kPa, x1 = 0.021	0.78 ± 0.24
323.15 K, 101 kPa, x1 = 0.04611	1.01 ± 0.3
323.15 K, 101 kPa, x1 = 0.08173	1.34 ± 0.4
323.15 K, 101 kPa, x1 = 0.135	1.46 ± 0.44

COC[N+]1(C)CCCC1.O=S(=O)([N-]S(=O)(=O)C(F)(F)F)C(F)(F)F + O
101 kPa, x2 = 0.1527
Details	viscosity [mPa·s]
293.15 K	35.2 ± 0.8
298.15 K	29.4 ± 0.7
303.15 K	24.8 ± 0.6
313.15 K	18.1 ± 0.4
323.15 K	13.8 ± 0.3

C[N+](C)(C)CCO.O=C([O-])C(F)(F)F + O
Details	viscosity [mPa·s]
298 K, 101.33 kPa, x2 = 0.8	7.7

O=S(=O)([O-])[O-].[Li+].[Li+] + O
Details	viscosity
293.15 K, 101 kPa, x1 = 0.007256	1.26 ± 0.03 mPa·s
293.15 K, 101 kPa, x1 = 0.01412	1.55 ± 0.03 mPa·s
293.15 K, 101 kPa, x1 = 0.02103	1.89 ± 0.04 mPa·s
293.15 K, 101 kPa, x1 = 0.02766	2.31 ± 0.05 mPa·s
293.15 K, 101 kPa, x1 = 0.03404	2.82 ± 0.06 mPa·s
293.15 K, 101 kPa, x1 = 0.04479	4.02 ± 0.09 mPa·s
293.15 K, 101 kPa, x1 = 0.05103	5.05 ± 0.11 mPa·s
293.15 K, 101 kPa, x1 = 0.05234	5.28 ± 0.11 mPa·s
293.15 K, 101 kPa, x1 = 0.05329	5.47 ± 0.12 mPa·s
293.15 K, 101 kPa, x1 = 0.05449	5.71 ± 0.12 mPa·s
298.15 K, 101 kPa, x1 = 0.007256	1.12 ± 0.02 mPa·s
298.15 K, 101 kPa, x1 = 0.00868	1.152 ± 0.029 mPa·s and 1.152 ± 0.067 mPa·s
298.15 K, 101 kPa, x1 = 0.01412	1.38 ± 0.03 mPa·s
298.15 K, 101 kPa, x1 = 0.02103	1.69 ± 0.04 mPa·s
298.15 K, 101 kPa, x1 = 0.02192	1.705 ± 0.043 mPa·s and 1.705 ± 0.11 mPa·s
298.15 K, 101 kPa, x1 = 0.02766	2.05 ± 0.04 mPa·s
298.15 K, 101 kPa, x1 = 0.03404	2.49 ± 0.05 mPa·s
298.15 K, 101 kPa, x1 = 0.03935	2.947 ± 0.075 mPa·s and 2.947 ± 0.21 mPa·s
298.15 K, 101 kPa, x1 = 0.04479	3.49 ± 0.07 mPa·s
298.15 K, 101 kPa, x1 = 0.05103	4.36 ± 0.09 mPa·s
298.15 K, 101 kPa, x1 = 0.05234	4.57 ± 0.1 mPa·s
298.15 K, 101 kPa, x1 = 0.05329	4.71 ± 0.1 mPa·s
298.15 K, 101 kPa, x1 = 0.05449	4.95 ± 0.11 mPa·s
298.15 K, 101.33 kPa, x1 = 0.05143	2.05 ± 0.058 mPa·s
298.15 K, 101.33 kPa, x1 = 0.05627	3.659 ± 0.098 mPa·s
300.15 K, 101 kPa, x1 = 0.05329	4.47 ± 0.1 mPa·s
300.15 K, 101 kPa, x1 = 0.05449	4.7 ± 0.1 mPa·s
303.15 K, 101 kPa, x1 = 0.007256	0.99 ± 0.02 mPa·s
303.15 K, 101 kPa, x1 = 0.01412	1.22 ± 0.03 mPa·s
303.15 K, 101 kPa, x1 = 0.02103	1.51 ± 0.03 mPa·s
303.15 K, 101 kPa, x1 = 0.02766	1.82 ± 0.04 mPa·s
303.15 K, 101 kPa, x1 = 0.03404	2.21 ± 0.05 mPa·s
303.15 K, 101 kPa, x1 = 0.04479	3.06 ± 0.07 mPa·s
303.15 K, 101 kPa, x1 = 0.05103	3.81 ± 0.08 mPa·s
303.15 K, 101 kPa, x1 = 0.05234	3.99 ± 0.09 mPa·s
303.15 K, 101 kPa, x1 = 0.05329	4.11 ± 0.09 mPa·s
303.15 K, 101 kPa, x1 = 0.05449	4.3 ± 0.09 mPa·s
305.15 K, 101 kPa, x1 = 0.05329	3.89 ± 0.08 mPa·s
305.15 K, 101 kPa, x1 = 0.05449	4.1 ± 0.09 mPa·s
308.15 K, 101 kPa, x1 = 0.05103	3.33 ± 0.07 mPa·s
308.15 K, 101 kPa, x1 = 0.05234	3.49 ± 0.07 mPa·s
308.15 K, 101 kPa, x1 = 0.05329	3.57 ± 0.08 mPa·s
310.15 K, 101 kPa, x1 = 0.05329	3.39 ± 0.07 mPa·s
311.15 K, 101 kPa, x1 = 0.05234	3.25 ± 0.07 mPa·s
312.15 K, 101 kPa, x1 = 0.05329	3.24 ± 0.07 mPa·s
313.15 K, 101 kPa, x1 = 0.007256	0.8 ± 0.02 mPa·s
313.15 K, 101 kPa, x1 = 0.01412	0.99 ± 0.02 mPa·s
313.15 K, 101 kPa, x1 = 0.02103	1.21 ± 0.03 mPa·s
313.15 K, 101 kPa, x1 = 0.02766	1.49 ± 0.03 mPa·s
313.15 K, 101 kPa, x1 = 0.03404	1.76 ± 0.04 mPa·s
313.15 K, 101 kPa, x1 = 0.04479	2.42 ± 0.05 mPa·s
313.15 K, 101 kPa, x1 = 0.05103	2.96 ± 0.06 mPa·s
313.15 K, 101 kPa, x1 = 0.05234	3.1 ± 0.07 mPa·s
313.15 K, 101 kPa, x1 = 0.05329	3.17 ± 0.07 mPa·s
314.15 K, 101 kPa, x1 = 0.05329	3.11 ± 0.07 mPa·s
316.15 K, 101 kPa, x1 = 0.05234	2.89 ± 0.06 mPa·s
318.15 K, 101 kPa, x1 = 0.05103	2.65 ± 0.06 mPa·s
318.15 K, 101 kPa, x1 = 0.05234	2.77 ± 0.06 mPa·s
320.15 K, 101 kPa, x1 = 0.05234	2.66 ± 0.06 mPa·s
323.15 K, 101 kPa, x1 = 0.00868	0.7 ± 0.036 mPa·s
323.15 K, 101 kPa, x1 = 0.02192	1.014 ± 0.057 mPa·s
323.15 K, 101 kPa, x1 = 0.03935	1.669 ± 0.11 mPa·s
323.15 K, 101 kPa, x1 = 0.05103	2.37 ± 0.05 mPa·s
323.15 K, 101 kPa, x1 = 0.05234	2.52 ± 0.05 mPa·s
323.15 K, 101.33 kPa, x1 = 0.05088	1.378 mPa·s

Source: the CheMixHub viscosity set
